# US20260216238A1, “TETRATHIOMOLYBDIC ACID FOR USE IN TREATING COPPER METABOLISM-ASSOCIATED DISEASES OR DISORDERS (WILSON DISEASE)” (Alexion Pharmaceuticals, Inc., priority 2023, published 2026)
# System: patients with Wilson disease (WD)
# Test: UWDRS Part III total score, functional subscale and individual items (neurological examination)
# Format: in vivo, human
# Settings: for UWDRS Part III change from baseline, LSM Diff (TTM vs SoC) / UWDRS Part III change from baseline, Mean / UWDRS Part III change from baseline, Median / UWDRS Part III change from baseline, LSM: patients symptomatic at baseline; for UWDRS Part III change from baseline, LSM: MMRM; for UWDRS Part III (0-175) change from baseline, LSM / UWDRS Part III (0-175) change from baseline, Mean / UWDRS Part III functional subscale (0-10) change from baseline, LSM / UWDRS Part III functional subscale (0-10) change from baseline, Mean / UWDRS Part III-arising from chair (0-4) change from baseline, LSM / UWDRS Part III-arising from chair (0-4) change from baseline, Mean / UWDRS Part III-gait (0-4) change from baseline, LSM / UWDRS Part III-gait (0-4) change from baseline, Mean / UWDRS Part III-handwriting (0-4) change from baseline, LSM / UWDRS Part III-handwriting (0-4) change from baseline, Mean / UWDRS Part III-speech (0-4) change from baseline, LSM / UWDRS Part III-speech (0-4) change from baseline, Mean: Study 301 TTM long term set
# Method: The UWDRS scoring system was developed specifically for the motor and movement disorders associated with chronic copper neurotoxicity in WD. Some individual items/subscales of the UWDRS Part III (arising from a chair, gait, handwriting, and speech) in addition to the UWDRS Parts I, II, and III overall, were assessed to further define the range of burdensome signs and symptoms of WD, so as to further understand the assessment of treatment effects on patients with WD. The UWDRS scores for consciousness (Part I) and abnormal neurologic examination findings (Part III) will be determined by a trained neurologist rater who is blinded to study treatment randomization. These scores were used to provide a rigorous dataset for evaluating changes from baseline.
# Unified Wilson Disease Rating Scale (Parts I, II, and III): The UWDRS is a clinical rating scale designed to evaluate the neurological manifestations of WD that generally can be divided into 3 movement disorder syndromes: dystonic, ataxic, and Parkinsonian syndrome. The UWDRS comprises 3 parts: UWDRS Part I (level of consciousness, item 1), UWDRS Part II (a patient-reported review of daily activity items [disability], items 2 to 11), and UWDRS Part III (a detailed neurological examination, items 12 to 34).
# The UWDRS Part I and Part III were assessed by a neurologist who is blinded to the treatment randomization, while UWDRS Part II may be reported to a non-blinded member of the study team by the patient, family member, or caregiver. The UWDRS has not been formally evaluated in adolescents. However, the components of Part I (level of consciousness), Part II (patient or caregiver-reported disability) and Part III (neurologic examination findings) were not fundamentally different between adults and adolescents. Patients aged 12 years and older were expected to be able to comply with UWDRS assessments.
# Pooled results from all such participants will be integrated together into one timeline to allow analyses of changes in UWDRS, long-term copper control, and long-term safety laboratory data.
# Endpoints (directly measured non-ceruloplasmin-bound copper [dNCC], UWDRS III (rater blinded) total and individual item scores, Clinical Global Impression-Improvement [CGI-I]) were evaluated at baseline (BL) and Week 48 (W48). Normalization (score decrease to 0), improvement (≥1 point decrease), stability (no change), or worsening (≥1 point increase) of total and individual UWDRS III item scores were evaluated at W48.
# [1] = Week 48, Cohort 1, Total (Studies 301, 201, 205), n=127
substance,measurement,setting,value
bis-choline tetrathiomolybdate [TTM],"UWDRS-III, Change from Baseline, Median",[1],−1.00
same,"UWDRS-III, Change from Baseline, Min",[1],"−48.0,"
same,"UWDRS-III, Change from Baseline, Q1",[1],"−6.00,"
same,"UWDRS-III, Change from Baseline, Q3",[1],0.00
same,"UWDRS-III, Change from Baseline, LSM Diff (TTM vs. SoC)","Week 48, Cohort 1, TTM Total vs SoC Study 301, P-value 0.1295",−1.97
same,"UWDRS-III, Change from Baseline, LSM","Week 48, Cohort 1, TTM Total, SoC Study 301",−3.62
same,"UWDRS Part III change from baseline, LSM Diff (TTM vs SoC)","Week 48, Cohort 1",−0.79
same,"UWDRS Part III change from baseline, Mean","Week 48, Cohort 1",−2.86
same,"UWDRS Part III change from baseline, Median","Week 48, Cohort 1",−2.00
same,"UWDRS Part III change from baseline, LSM","Week 48, Cohort 1",−2.68
same,"UWDRS Part III change from baseline, LSM Diff (TTM vs SoC)","Week 48, Cohort 2",0.05
same,"UWDRS Part III change from baseline, Mean","Week 48, Cohort 2",−3.10
same,"UWDRS Part III change from baseline, Median","Week 48, Cohort 2",−3.00
same,"UWDRS Part III change from baseline, LSM","Week 48, Cohort 2",1.43
same,"UWDRS Part III change from baseline, LSM Diff (TTM vs SoC)","Week 48, Overall",−0.33
same,"UWDRS Part III change from baseline, Mean","Week 48, Overall",2.91
same,"UWDRS Part III change from baseline, Median","Week 48, Overall",−2.00
same,"UWDRS Part III change from baseline, LSM","Week 48, Overall",−1.54
same,"UWDRS Part III (0-175) change from baseline, LSM",Week 48,−2.47
same,"UWDRS Part III (0-175) change from baseline, Mean",Week 48,−2.32
same,"UWDRS Part III functional subscale (0-10) change from baseline, LSM",Week 48,−0.230
same,"UWDRS Part III functional subscale (0-10) change from baseline, Mean",Week 48,−0.235
same,"UWDRS Part III-arising from chair (0-4) change from baseline, LSM",Week 48,0.0
same,"UWDRS Part III-arising from chair (0-4) change from baseline, Mean",Week 48,0.0
same,"UWDRS Part III-gait (0-4) change from baseline, LSM",Week 48,−0.26
same,"UWDRS Part III-gait (0-4) change from baseline, Mean",Week 48,−0.18
same,"UWDRS Part III-handwriting (0-4) change from baseline, LSM",Week 48,−0.1
same,"UWDRS Part III-handwriting (0-4) change from baseline, Mean",Week 48,−0.2
same,"UWDRS Part III-speech (0-4) change from baseline, LSM",Week 48,−0.1
same,"UWDRS Part III-speech (0-4) change from baseline, Mean",Week 48,−0.1
same,"UWDRS Part III (0-175) change from baseline, LSM",Week 72,−3.47
same,"UWDRS Part III (0-175) change from baseline, Mean",Week 72,−3.27
same,"UWDRS Part III functional subscale (0-10) change from baseline, LSM",Week 72,−0.253
same,"UWDRS Part III functional subscale (0-10) change from baseline, Mean",Week 72,−0.290
same,"UWDRS Part III-arising from chair (0-4) change from baseline, LSM",Week 72,−0.1
same,"UWDRS Part III-arising from chair (0-4) change from baseline, Mean",Week 72,−0.1
same,"UWDRS Part III-gait (0-4) change from baseline, LSM",Week 72,−0.15
same,"UWDRS Part III-gait (0-4) change from baseline, Mean",Week 72,−0.12
same,"UWDRS Part III-handwriting (0-4) change from baseline, LSM",Week 72,−0.2
same,"UWDRS Part III-handwriting (0-4) change from baseline, Mean",Week 72,−0.2
same,"UWDRS Part III-speech (0-4) change from baseline, LSM",Week 72,−0.1
same,"UWDRS Part III-speech (0-4) change from baseline, Mean",Week 72,−0.1
same,"UWDRS Part III (0-175) change from baseline, LSM",Week 96,−4.77
same,"UWDRS Part III (0-175) change from baseline, Mean",Week 96,−4.09
same,"UWDRS Part III functional subscale (0-10) change from baseline, LSM",Week 96,−0.386
same,"UWDRS Part III functional subscale (0-10) change from baseline, Mean",Week 96,−0.503
same,"UWDRS Part III-arising from chair (0-4) change from baseline, LSM",Week 96,−0.1
same,"UWDRS Part III-arising from chair (0-4) change from baseline, Mean",Week 96,−0.2
same,"UWDRS Part III-gait (0-4) change from baseline, LSM",Week 96,−0.12
same,"UWDRS Part III-gait (0-4) change from baseline, Mean",Week 96,−0.11
same,"UWDRS Part III-handwriting (0-4) change from baseline, LSM",Week 96,−0.3
same,"UWDRS Part III-handwriting (0-4) change from baseline, Mean",Week 96,−0.4
same,"UWDRS Part III-speech (0-4) change from baseline, LSM",Week 96,−0.2
same,"UWDRS Part III-speech (0-4) change from baseline, Mean",Week 96,−0.2
same,"UWDRS Part III (0-175) change from baseline, LSM",Week 120,−5.27
same,"UWDRS Part III (0-175) change from baseline, Mean",Week 120,−4.08
same,"UWDRS Part III functional subscale (0-10) change from baseline, LSM",Week 120,−0.392
same,"UWDRS Part III functional subscale (0-10) change from baseline, Mean",Week 120,−0.410
same,"UWDRS Part III-arising from chair (0-4) change from baseline, LSM",Week 120,−0.1
same,"UWDRS Part III-arising from chair (0-4) change from baseline, Mean",Week 120,−0.2
same,"UWDRS Part III-gait (0-4) change from baseline, LSM",Week 120,0.04
same,"UWDRS Part III-gait (0-4) change from baseline, Mean",Week 120,0.26
same,"UWDRS Part III-handwriting (0-4) change from baseline, LSM",Week 120,−0.3
same,"UWDRS Part III-handwriting (0-4) change from baseline, Mean",Week 120,−0.5
same,"UWDRS Part III-speech (0-4) change from baseline, LSM",Week 120,−0.2
same,"UWDRS Part III-speech (0-4) change from baseline, Mean",Week 120,−0.1
same,"UWDRS Part III (0-175) change from baseline, LSM",Week 144,−6.38
same,"UWDRS Part III (0-175) change from baseline, Mean",Week 144,−5.99
same,"UWDRS Part III functional subscale (0-10) change from baseline, LSM",Week 144,−0.489
same,"UWDRS Part III functional subscale (0-10) change from baseline, Mean",Week 144,−0.573
same,"UWDRS Part III-arising from chair (0-4) change from baseline, LSM",Week 144,−0.2
same,"UWDRS Part III-arising from chair (0-4) change from baseline, Mean",Week 144,−0.3
same,"UWDRS Part III-gait (0-4) change from baseline, LSM",Week 144,−0.25
same,"UWDRS Part III-gait (0-4) change from baseline, Mean",Week 144,0.00
same,"UWDRS Part III-handwriting (0-4) change from baseline, LSM",Week 144,−0.3
